Experimental data taken from PubChem BioAssay (NCI).
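In this assay, cells in 96-well plates receive the compound at five concentrations for 48 hours. Endpoints are linearly interpolated between the surrounding concentrations. GI50 = concentration required for 50% inhibition of growth. The concentration for full growth arrest is given as TGI.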

Tests used:
Test in all cases: growth of human tumour cells (NCI), 48 h
HS 578T breast = test system: HS 578T breast
NCI-H460 lung = test system: NCI-H460 lung
HCC-2998 colon = test system: HCC-2998 colon
MCF7 breast = test system: MCF7 breast
M14 melanoma = test system: M14 melanoma
HL-60(TB) leukemia = test system: HL-60(TB) leukemia
RPMI-8226 leukemia = test system: RPMI-8226 leukemia
DU-145 prostate = test system: DU-145 prostate
IGROV1 ovarian = test system: IGROV1 ovarian
SR leukemia = test system: SR leukemia

SMILES	TGI (HS 578T breast) [µM]	TGI (NCI-H460 lung) [µM]	TGI (HCC-2998 colon) [µM]	TGI (MCF7 breast) [µM]	TGI (M14 melanoma) [µM]	TGI (HL-60(TB) leukemia) [µM]	TGI (RPMI-8226 leukemia) [µM]	TGI (DU-145 prostate) [µM]	TGI (IGROV1 ovarian) [µM]	TGI (SR leukemia) [µM]	GI50 (HS 578T breast) [µM]	GI50 (NCI-H460 lung) [µM]	GI50 (HCC-2998 colon) [µM]	GI50 (MCF7 breast) [µM]	GI50 (M14 melanoma) [µM]	GI50 (HL-60(TB) leukemia) [µM]	GI50 (RPMI-8226 leukemia) [µM]	GI50 (DU-145 prostate) [µM]	GI50 (IGROV1 ovarian) [µM]	GI50 (SR leukemia) [µM]
COc1ccc(CCNC(=O)Cc2ccccc2CO)cc1OC	> 100	> 100	> 100	> 100	> 100	> 100	> 100	> 100	> 100	> 100										
Clc1ccc2c(c1)N(CCCN1CCCC13CCCCC3)c1ccccc1S2	34.2	21.4	8.64	32.3	27.3	5.18	11.3	34.2	30.3	17.5										
O=CCCCCCOCc1ccccc1	> 100	> 54.9	> 100	> 100	> 100	> 43.7	> 56.8	> 100	> 100	> 100										
CCc1nc(N)c2nc(-c3cccs3)oc2n1	> 100	> 100	> 100	> 100	> 100	> 100	> 100	> 100	> 100	> 100										
Cc1cn(CCCCCCOC(=O)NC(CCCNC(N)=O)C(=O)O)c(=O)[nH]c1=O (stereo not given)	> 100	> 100	> 100	> 100	> 100	> 100	> 100	> 100	> 100	> 100										
CCOC(=O)NC(=S)N(CC(=O)c1cc(OC)c(OC)c(OC)c1)c1ccc(Cl)cc1	> 100	> 100	> 100	> 100	> 100	> 100	> 100	> 100	> 100	> 100	96.4	52.5	33.4	> 100	36.7	65.7	30.2	79.1	70.1	38.1
O=C1NC(O)c2cc3ccccc3cc2O1 (stereo not given)	> 100	> 100	> 100	> 100	> 100	> 100	> 100	> 100	> 100	71.3										
N#Cc1nc(CCc2nc(C#N)c(N)o2)oc1N	> 10	> 10	> 10	> 10	> 10	> 10	> 10	> 10	> 10	> 10										
Clc1ccc2c(NCCCCCCNc3ccnc4cc(Cl)ccc34)ccnc2c1	> 48.8	6.3	3.32	7.27	3.51	4.7	6.53	14.1	14.5	19.3										
COc1cccc2c1C(=O)c1c(O)c3c(c(O)c1C2=O)C[C@@](O)(C(C)=O)CC3OC1CC(OC2CC(N)C(O)C(C)O2)C(O)C(C)O1 (stereo not given in full)	> 100	> 100	> 100	> 59.6	> 100	34.8	> 74.5	> 100	> 100	> 70										
CC(C)(C)C1CCC2c3c([nH]c4ccccc34)C3C(=O)N(c4ccc([N+](=O)[O-])cc4)C(=O)C3C2C1 (stereo not given)	39.3	> 100	27.4	17.9	86.2	34.7	> 100	> 100	> 100	19.7										
O=S(=O)(Nc1nc2ccccc2nc1N1CCCCCC1)c1ccccc1	83.9	33.5	31.9	> 100	49.9	75.1	> 100	> 100	> 100	> 100										
CC(=O)NC1C(OCc2ccccc2)OC(CO)C(O)C1OC(C)C(=O)N[C@@H](C)C(=O)N[C@H](CCC(=O)NCCNCCNc1c2ccccc2nc2cccc([N+](=O)[O-])c12)C(N)=O (stereo not given in full)	5.13	0.0486	0.072	2.17	0.436	> 80.5	0.381	0.231	0.672	> 71.4										
O=C1Nc2ccccc2/C1=C\c1c(Cl)n(-c2ccccc2)c2ccccc12	5.71	21.7	9.83	88	10.1	> 100	> 100	8.91	9.64	> 100										
O=c1[nH]c(=O)n(COC(CO)CO)cc1-c1ccccc1	> 100	> 100	> 100	> 100	> 100	> 100	> 100	> 100	> 100	> 100										
